US7803778B2, “Glucose transport inhibitors and methods of use” (Theracos, Inc., priority 2006, dated 2010)
Where two headings read alike, the source gives them in different places.

Columns and labels:
[1] = molecular target: T1, human SGLT1 (Homo sapiens, UniProt P13866); assay: Methyl-α-D-[U-14C]glucopyranoside uptake assay, SGLT1; assay type: cell-based; details: COS-7 cells transfected with human SGLT1; sodium-dependent uptake, 2 h incubation
T1 construct: Full-length human SGLT1 cDNA on pDream2.1 expression vector; host or cells: COS-7 cells
T1 sequence (P13866 1-664): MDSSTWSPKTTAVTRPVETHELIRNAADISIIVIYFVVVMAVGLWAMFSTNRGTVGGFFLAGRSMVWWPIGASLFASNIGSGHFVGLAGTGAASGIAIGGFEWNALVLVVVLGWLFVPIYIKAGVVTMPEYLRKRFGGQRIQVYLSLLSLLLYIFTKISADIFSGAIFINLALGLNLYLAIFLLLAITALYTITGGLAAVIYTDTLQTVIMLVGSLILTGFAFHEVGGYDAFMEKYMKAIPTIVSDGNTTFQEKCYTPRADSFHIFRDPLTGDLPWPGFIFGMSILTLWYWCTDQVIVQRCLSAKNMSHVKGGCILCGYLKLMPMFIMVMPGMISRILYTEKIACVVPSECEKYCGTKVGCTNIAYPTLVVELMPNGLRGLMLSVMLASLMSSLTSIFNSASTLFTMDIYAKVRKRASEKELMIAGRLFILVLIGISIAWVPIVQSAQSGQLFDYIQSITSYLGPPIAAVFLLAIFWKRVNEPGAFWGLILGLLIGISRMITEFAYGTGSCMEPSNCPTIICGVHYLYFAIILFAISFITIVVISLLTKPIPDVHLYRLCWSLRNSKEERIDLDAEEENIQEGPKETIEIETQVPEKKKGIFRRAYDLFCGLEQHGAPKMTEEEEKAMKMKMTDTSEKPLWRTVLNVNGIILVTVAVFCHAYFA
Procedure: Full-length human SGLT1 cDNA on pDream2.1 expression vector was obtained from GenScript Corporation and propagated in Escherichia coli strain DH5α using Luria-Bertani (LB) medium containing ampicillin. Plasmid DNA was isolated using the QIAGEN Plasmid Midi Kit (QIAGEN Inc.). […] Transfected cells were stored in DMEM containing 10% dimethyl sulfoxide (DMSO) at −80° C.
(§1) Cells expressing SGLT1 or SGLT2 were seeded on 96-well ScintiPlate scintillating plates (PerkinElmer, Inc.) in DMEM containing 10% FBS (1×10^5 cells per well in 100 μl medium) incubated at 37° C. under 5% CO2 for 48 h prior to the assay. Cells were washed twice with 150 μl of either sodium buffer (137 mM NaCl, 5.4 mM KCl, 2.8 mM CaCl2, 1.2 mM MgCl2, 10 mM tris(hydroxymethyl)aminomethane/N-2-hydroxyethylpiperazine-N′-ethanesulfonic acid [Tris/Hepes], pH 7.2) or sodium-free buffer (137 mM N-methyl-glucamine, 5.4 mM KCl, 2.8 mM CaCl2, 1.2 mM MgCl2, 10 mM Tris/Hepes, pH 7.2). Test compound in 50 μl each of sodium or sodium-free buffer containing 40 μCi/ml methyl-α-D-[U-^14C]glucopyranoside (Amersham Biosciences/GE Healthcare) was added per well of a 96-well plate and incubated at 37° C. with shaking for either 2 h (SGLT1 assay) or 1.5 h (SGLT2 assay). Cells were washed twice with 150 μl of wash buffer (137 mM N-methylglucamine, 10 mM Tris/Hepes, pH 7.2) and methyl-α-D-[U-^14C]glucopyranoside uptake was quantitated using a TopCount scintillation counter (PerkinElmer, Inc.). Sodium-dependent glucopyranoside uptake was measured by subtracting the values obtained with sodium-free buffer from those obtained using sodium buffer (average of triplicate determinations).

[2] = molecular target: T2, human SGLT2 (Homo sapiens, UniProt P31639); assay: Methyl-α-D-[U-14C]glucopyranoside uptake assay, SGLT2; assay type: cell-based; details: HEK293.ETN cells stably expressing human SGLT2, sodium-dependent uptake, 1.5 h incubation
T2 construct: A full-length cDNA clone expressing human SGLT2
T2 sequence (P31639 1-672): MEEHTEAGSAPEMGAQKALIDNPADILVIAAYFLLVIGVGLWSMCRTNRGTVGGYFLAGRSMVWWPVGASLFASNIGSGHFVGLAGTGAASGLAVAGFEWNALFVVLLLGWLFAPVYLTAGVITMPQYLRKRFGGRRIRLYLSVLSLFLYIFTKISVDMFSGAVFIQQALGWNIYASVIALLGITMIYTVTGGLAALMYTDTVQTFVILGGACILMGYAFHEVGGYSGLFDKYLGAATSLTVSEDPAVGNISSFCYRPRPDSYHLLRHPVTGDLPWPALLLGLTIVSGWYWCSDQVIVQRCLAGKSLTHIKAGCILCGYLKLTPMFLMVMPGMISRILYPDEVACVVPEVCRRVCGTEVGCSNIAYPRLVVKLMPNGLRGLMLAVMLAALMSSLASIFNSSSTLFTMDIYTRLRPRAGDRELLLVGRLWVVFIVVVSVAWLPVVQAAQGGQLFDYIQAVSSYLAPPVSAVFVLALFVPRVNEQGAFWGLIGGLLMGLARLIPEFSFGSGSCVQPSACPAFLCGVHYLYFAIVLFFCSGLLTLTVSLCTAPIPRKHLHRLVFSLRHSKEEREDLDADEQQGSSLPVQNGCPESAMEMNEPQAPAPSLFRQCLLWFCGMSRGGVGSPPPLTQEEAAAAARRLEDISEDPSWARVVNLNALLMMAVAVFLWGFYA
From the text: A full-length cDNA clone expressing human SGLT2 (GenScript Corporation) was subcloned into Hind III and Not I sites of pEAK15 expression vector. Clones harboring the cDNA inserts were identified by restriction analysis.
Plasmid containing human SGLT2 was linearized with Nsi I and purified by agarose gel electrophoresis. Using Lipofectamine 2000 Transfection Reagent (Invitrogen Corporation), DNA was transfected into HEK293.ETN cells and cultured in Dulbecco's Modified Eagle Medium (DMEM) containing 10% fetal bovine serum (FBS) at 37° C. under 5% CO2 for 24 h. Transfectants were selected in the same growth medium supplemented with puromycin (Invitrogen Corporation) for two weeks. Puromycin-resistant cells were recovered and seeded on a fresh 96-well plate (single cell per well) and cultured in the presence of puromycin until cells became confluent. Puromycin-resistant clones were evaluated for SGLT2 activity in the methyl-α-D-[U-^14C]glucopyranoside uptake assay described below.
as §1

SMILES	IC50 [1] [µM]	IC50 ([2]; read-out: IC50 SGLT2) [nM]	IC50 ([2]; read-out: SGLT2 IC50) [nM]
CCc1ccc(Cc2cc3c(cc2Cl)CO[C@]32O[C@H](COC)[C@@H](O)[C@H](O)[C@H]2O)cc1 [Compound AG, (1S,3′R,4′S,5′S,6′R)-5-chloro-6-(4-ethylbenzyl)-6′-(methoxymethyl)-3′,4′,5′,6′-tetrahydro-3H-spiro[isobenzofuran-1,2′-pyran]-3′,4′,5′-triol]	1 to 10	< 1000	–
CCc1ccc(Cc2cc3c(cc2Cl)CO[C@]32O[C@H](COC(C)=O)[C@@H](O)[C@H](O)[C@H]2O)cc1 [Compound AH, ((1S,3′R,4′S,5′S,6′R)-5-chloro-6-(4-ethylbenzyl)-3′,4′,5′-trihydroxy-3′,4′,5′,6′-tetrahydro-3H-spiro[isobenzofuran-1,2′-pyran]-6′-yl)methyl acetate]	1 to 10	< 1000	–
CCc1ccc(Cc2cc3c(cc2Cl)CO[C@]32O[C@H](COCC(F)(F)F)[C@@H](O)[C@H](O)[C@H]2O)cc1 [Compound AI, (1S,3′R,4′S,5′S,6′R)-5-chloro-6-(4-ethylbenzyl)-6′-((2,2,2-trifluoroethoxy)methyl)-3′,4′,5′,6′-tetrahydro-3H-spiro[isobenzofuran-1,2′-pyran]-3′,4′,5′-triol]	> 10	< 1000	–
CCc1ccc(Cc2cc3c(cc2Cl)CO[C@]32O[C@H](CNC(C)=O)[C@@H](O)[C@H](O)[C@H]2O)cc1 [Compound AM, N-(((1S,3′R,4′S,5′S,6′R)-5-chloro-6-(4-ethylbenzyl)-3′,4′,5′-trihydroxy-3′,4′,5′,6′-tetrahydro-3H-spiro[isobenzofuran-1,2′-pyran]-6′-yl)methyl)acetamide]	1 to 10	< 1000	–
CCc1ccc(C(=O)c2cc3c(cc2Cl)CO[C@]32O[C@H](CO)[C@@H](O)[C@H](O)[C@H]2O)cc1 [Compound AQ, ((1S,3′R,4′S,5′S,6′R)-5-chloro-3′,4′,5′-trihydroxy-6′-(hydroxymethyl)-3′,4′,5′,6′-tetrahydro-3H-spiro[isobenzofuran-1,2′-pyran]-6-yl)(4-ethylphenyl)methanone]	> 10	< 1000	–
CCc1ccc(Cc2cc3c(cc2Cl)CC[C@]32O[C@H](CO)[C@@H](O)[C@H](O)[C@H]2O)cc1 [Compound AV, (1S,3′R,4′S,5′S,6′R)-5-chloro-6-(4-ethylbenzyl)-6′-(hydroxymethyl)-2,3,3′,4′,5′,6′-hexahydrospiro[indene-1,2′-pyran]-3′,4′,5′-triol]	1 to 10	< 1000	–
CCc1ccc(Cc2cc3c(cc2Cl)C(CCO)C[C@]32O[C@H](CO)[C@@H](O)[C@H](O)[C@H]2O)cc1 (stereo partly drawn) [Compound BA, (1S,3′R,4′S,5′S,6′R)-5-chloro-6-(4-ethylbenzyl)-3-(2-hydroxyethyl)-6′-(hydroxymethyl)-2,3,3′,4′,5′,6′-hexahydrospiro[indene-1,2′-pyran]-3′,4′,5′-triol]	> 10	< 1000	–
CCc1ccc(Cc2cc3c(cc2Cl)C(O)C[C@]32O[C@H](CO)[C@@H](O)[C@H](O)[C@H]2O)cc1 (stereo partly drawn) [Compound BB, (1S,3′R,4′S,5′S,6′R)-5-chloro-6-(4-ethylbenzyl)-6′-(hydroxymethyl)-2,3,3′,4′,5′,6′-hexahydrospiro[indene-1,2′-pyran]-3,3′,4′,5′-tetraol]	> 10	< 1000	–
CCc1ccc(Cc2cc3c(cc2Cl)C(OC)C[C@]32O[C@H](CO)[C@@H](O)[C@H](O)[C@H]2O)cc1 (stereo partly drawn) [Compound BD, (1S,3′R,4′S,5′S,6′R)-5-chloro-6-(4-ethylbenzyl)-6′-(hydroxymethyl)-3-methoxy-2,3,3′,4′,5′,6′-hexahydrospiro[indene-1,2′-pyran]-3′,4′,5′-triol]	> 10	< 1000	–
CCc1ccc(Cc2cc3c(cc2Cl)C(F)C[C@]32O[C@H](CO)[C@@H](O)[C@H](O)[C@H]2O)cc1 (stereo partly drawn) [Compound BE, (1S,3′R,4′S,5′S,6′R)-5-chloro-6-(4-ethylbenzyl)-3-fluoro-6′-(hydroxymethyl)-2,3,3′,4′,5′,6′-hexahydrospiro[indene-1,2′-pyran]-3′,4′,5′-triol]	> 10	< 1000	–
OC[C@H]1O[C@]2(CCc3cc(Cl)c(Cc4ccc(O[C@H]5CCOC5)cc4)cc32)[C@H](O)[C@@H](O)[C@@H]1O [Compound BG, (1S,3′R,4′S,5′S,6′R)-5-chloro-6′-(hydroxymethyl)-6-(4-((S)-tetrahydrofuran-3-yloxy)benzyl)-2,3,3′,4′,5′,6′-hexahydrospiro[indene-1,2′-pyran]-3′,4′,5′-triol]	> 10	< 1000	–
CCOc1ccc(Cc2ccc3c(c2)[C@]2(OC3)O[C@H](CO)[C@@H](O)[C@H](O)[C@H]2O)cc1 [Compound G, (1S,3′R,4′S,5′S,6′R)-6-(4-ethoxybenzyl)-6′-(hydroxymethyl)-3′,4′,5′,6′-tetrahydro-3H-spiro[isobenzofuran-1,2′-pyran]-3′,4′,5′-triol]	> 10	< 1000	71
CCOc1ccc(Cc2cc3c(cc2Cl)CO[C@]32O[C@H](CO)[C@@H](O)[C@H](O)[C@H]2O)cc1 [Compound H, (1S,3′R,4′S,5′S,6′R)-5-chloro-6-(4-ethoxybenzyl)-6′-(hydroxymethyl)-3′,4′,5′,6′-tetrahydro-3H-spiro[isobenzofuran-1,2′-pyran]-3′,4′,5′-triol]	1 to 10	< 1000	5.1
CCc1ccc(Cc2cc3c(cc2Cl)CO[C@]32O[C@H](CO)[C@@H](O)[C@H](O)[C@H]2O)cc1 [Compound K, (1S,3′R,4′S,5′S,6′R)-5-chloro-6-(4-ethylbenzyl)-6′-(hydroxymethyl)-3′,4′,5′,6′-tetrahydro-3H-spiro[isobenzofuran-1,2′-pyran]-3′,4′,5′-triol]	< 1	< 1000	–
